The values below are quoted from earlier work in PMC9190099, “Menthol carbonates as potent antiparasitic agents: synthesis and in vitro studies along with computer-aided approaches” (BMC Complementary Medicine and Therapies, 2022).

Data set [1] has as its system Leishmania amazonensis promastigotes. Also noted: method as in earlier work. As to conditions: ref 53 (Silva et al. 2017), read-out: EC50 against Leishmania amazonensis promastigotes; cited from earlier work.
The next data set relates to L. branziliensis. Also noted: method as in PMID 28509873. To be noted: previous studies; read-out: EC50 reported for L. branziliensis; cited from earlier work.

Turning to `C=CCc1ccc(O)c(OC)c1` [eugenol], the EC50 in data set [1] is 505 µM; with L. branziliensis, 60.4 µM.

Usually EC50 stands for the concentration at which the effect is half-maximal.
